Each compound was assayed against Histone deacetylase (assay: Inhibition of HDAC in human HeLa cells using Ac-Arg-Gly-Lys(Ac)-AMC as fluorescent substrate after 20 mins by fluorescence assay).
Type: cell-based

Compound	IC50 [nM]
C=CCC(/C=C/c1ccccc1)n1cc(/C=C/C(=O)NO)nn1 (stereo not drawn)	90
O=C(/C=C/c1cn(C(/C=C/c2ccccc2)Cc2cccc(Oc3ccccc3)c2)nn1)NO (stereo not drawn)	510
O=C(/C=C/c1cn(C(/C=C/c2ccccc2)C2CCCC2)nn1)NO (stereo not drawn)	115
CCC(/C=C/c1ccccc1)n1cc(/C=C/C(=O)NO)nn1 (stereo not drawn)	55
O=C(/C=C/c1cn(C(/C=C/c2ccccc2)Cc2cccc(-c3ccccc3)c2)nn1)NO (stereo not drawn)	403
CC(C)(C)C(/C=C/c1ccccc1)n1cc(/C=C/C(=O)NO)nn1 (stereo not drawn)	18
CCCC(/C=C/c1ccccc1)n1cc(/C=C/C(=O)NO)nn1 (stereo not drawn)	132
O=C(/C=C/c1cn(C(/C=C/c2ccccc2)Cc2nccs2)nn1)NO (stereo not drawn)	171
CCCCC(/C=C/c1ccccc1)n1cc(/C=C/C(=O)NO)nn1 (stereo not drawn)	137
O=C(/C=C/c1cn(C(/C=C/c2ccccc2)Cc2cccc3ccccc23)nn1)NO (stereo not drawn)	111
O=C(/C=C/c1cn(C(/C=C/c2ccccc2)C2CCC2)nn1)NO (stereo not drawn)	54
CC(C)CC(/C=C/c1ccccc1)n1cc(/C=C/C(=O)NO)nn1 (stereo not drawn)	838
O=C(/C=C/c1cn(C(/C=C/c2ccccc2)Cc2ccc3ccccc3c2)nn1)NO (stereo not drawn)	94

Source: ChEMBL document CHEMBL1806473, “Structure-based optimization of click-based histone deacetylase inhibitors” (Eur J Med Chem, 2011)
